Experimental data published in PubChem BioAssay (NCI).
Where “and” joins values, the source holds several entries; their conditions need not be identical. Equal entries are not always repeated.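 Protocol summary: plate cells (96-well), add compound at 5 concentrations, incubate 48 h, interpolate endpoints linearly. Abbreviation: GI50, concentration required for 50% inhibition of growth. TGI is the concentration that stops growth completely.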

How the values were obtained:
Test in all cases: inhibition of tumour cell growth, NCI panel, 48 h
OVCAR-4 ovarian = system: OVCAR-4 ovarian
MCF7 breast = system: MCF7 breast
HOP-62 NSCLC = system: HOP-62 NSCLC
CAKI-1 renal = system: CAKI-1 renal
HL-60(TB) leukemia = system: HL-60(TB) leukemia
MOLT-4 leukemia = system: MOLT-4 leukemia
SN12C renal = system: SN12C renal
RXF 393 renal = system: RXF 393 renal
A498 renal = system: A498 renal
M14 melanoma = system: M14 melanoma

SMILES	TGI (OVCAR-4 ovarian)	TGI (MCF7 breast)	TGI (HOP-62 NSCLC)	TGI (CAKI-1 renal)	TGI (HL-60(TB) leukemia)	TGI (MOLT-4 leukemia)	TGI (SN12C renal)	TGI (RXF 393 renal)	TGI (A498 renal)	TGI (M14 melanoma) [µM]	GI50 (OVCAR-4 ovarian) [µM]	GI50 (MCF7 breast) [µM]	GI50 (HOP-62 NSCLC) [µM]	GI50 (CAKI-1 renal)	GI50 (HL-60(TB) leukemia)	GI50 (MOLT-4 leukemia) [µM]	GI50 (SN12C renal) [µM]	GI50 (A498 renal) [µM]
Oc1cccc2c(Cl)ccnc12	7.45 µM	> 100 µM	> 100 µM	> 58.5 µM	3.36 µM	4.19 µM	> 55.2 µM	7.95 µM	> 43.5 µM	13.4								
O=C(CCC(=O)c1ccc(Cl)cc1)NO	> 100 µM	> 100 µM	> 100 µM	> 100 µM	> 100 µM	> 100 µM	> 100 µM	> 100 µM	> 100 µM	> 100								
CNC(=O)OCC1=C(COC(=O)NC)C(C)N(c2ccc(OC)cc2)C1 (stereo unspecified)	> 100 µM	> 100 µM	> 100 µM		55.2 µM	> 100 µM	> 100 µM	> 100 µM	1.74 µM	> 100								
C=C(Br)C(C)(Cl)CCC(Br)C(C)(C)Cl (stereo unspecified)	> 100 µM	> 100 µM	> 100 µM	> 100 µM	80.6 µM	> 100 µM	> 100 µM	65.1 µM	> 100 µM	> 100								
CN1CCN([C@H]2C[C@H]3[C@@H]4CC=C5C[C@@H](O)CC[C@]5(C)[C@H]4CC[C@]3(C)C2=O)CC1	> 100 µM	> 100 µM	> 100 µM	> 100 µM	> 100 µM	> 100 µM	> 100 µM	> 100 µM	> 100 µM	> 100								
C=C(C1=CC(=O)C(C)(C)O1)[C@@H]1CC=C([C@@H]2CC[C@H]3[C@@]2(C)CC[C@H]2C(C)(C)C(=O)[C@H](O)C[C@]32C)[C@H](O)O1	10.3 µM	1.61 µM	8.33 µM	14.2 µM	8.11 µM	3.96 µM	5.18 µM	3.59 µM	9.89 µM	3.08								
Cc1cc(=O)[nH]c(NN2C(Cl)C(=O)C2c2ccccc2O)n1 (stereo unspecified)	> 100 µM	> 100 µM	> 100 µM	> 100 µM	> 100 µM	> 100 µM	> 64 µM	> 100 µM	> 100 µM	> 34.7								
Cc1cc(O)c2c(=O)c3ccccc3[nH]c2c1	75.8 µM	> 100 µM	71.2 µM	90.6 µM	64.7 µM	> 100 µM	> 100 µM	82.8 µM	82.6 µM	52.6								
C=C1c2nc3ccccc3n2C=C(c2ccccc2)N1c1ccc([N+](=O)[O-])cc1	2.29 µM	> 37.9 µM	> 52.6 µM	24 µM	> 88.1 µM	> 100 µM	> 95.2 µM	16 µM	42 µM	> 60.4								
Cc1cccc(/C=N/NC(=S)Nc2ccccc2)n1	> 90.4 µM	> 25.7 µM	17.8 µM	> 42.3 µM	> 24.7 µM	> 100 µM	12.3 µM	28.1 µM	67 µM	8.05								
O=[N+]([O-])/C(C(Cl)=C(Cl)Cl)=C(\SCc1ccccc1)N1CCCCC1	51.5 µM	32.2 µM	> 100 µM	> 100 µM	29.6 µM	41.1 µM	47.6 µM	62.6 µM	70.1 µM	45.6								
N=c1n(C(=O)N2CCCC2)c2cc(Cl)ccc2n1C1=NCCN1	> 100 µM	> 100 µM	> 100 µM	> 100 µM	> 100 µM	> 100 µM	> 100 µM	> 100 µM	> 100 µM	> 100								
CNC(=O)C(C)C1CCC2(C)C=CC(=O)C(C)=C2C1O (stereo unspecified)	> 100 µM	> 100 µM	> 100 µM	91.7 µM	> 100 µM	> 100 µM	> 100 µM	> 100 µM	> 100 µM									
Cc1c2cnccc2c(C)c2c1c1ccccc1n2CCCN	0.665 µM and 0.246 µM	1.19 µM and 0.277 µM	1.52 µM and 0.597 µM	1.9 µM and 1.41 µM	1.52 µM and 1.81 µM	0.472 µM and 0.217 µM	1.36 µM and 1.1 µM	0.799 µM and 0.888 µM	1.62 µM and 1.15 µM	0.91	0.0661	0.0474	0.0687	0.779 µM and 0.295 µM	0.527 µM and 0.414 µM	< 0.0178	0.25	0.468
C(/c1ccco1)=c1/nc(-c2ccccc2)n2c1nc1ccccc12	> 100 µM	> 100 µM	> 100 µM	72.2 µM	> 100 µM	33.5 µM	> 100 µM	> 100 µM	> 100 µM	> 100								
